IC50 data for twelve compounds are collected here from US20250145665A1, “MACROCYCLIC PEPTIDES USEFUL AS MODULATORS OF TNF ALPHA” (Bristol-Myers Squibb Company, priority 2023, published 2025).

pIC50: −log10 of the molar value. Positions of bridges follow the written chain, without caps; N, C: chain ends. Non-standard residues stand in square brackets, D forms with d. Residues, ends and D or L forms follow the SMILES beside them. Ala(morpholin-4-yl) = N[C@@H](CN1CCOCC1)C(=O)O; Bip = N[C@@H](Cc1ccc(-c2ccccc2)cc1)C(=O)O; Phe(3-OMe) = COc1cccc(C[C@H](N)C(=O)O)c1; Phe(4-NH2) = Nc1ccc(C[C@H](N)C(=O)O)cc1; Val(3-OH) = CC(C)(O)[C@H](N)C(=O)O; Hyp = O=C(O)[C@@H]1C[C@@H](O)CN1; 3Pal = N[C@@H](Cc1cccnc1)C(=O)O; Tic = O=C(O)[C@@H]1Cc2ccccc2CN1; Aze = O=C(O)[C@@H]1CCN1; Sar = CNCC(=O)O Some results are limits rather than exact numbers.

In the test the target is TNFα (Homo sapiens, UniProt P01375). Description: TNF-Induced HEK-Blue Assay. The following applies: HEK-Blue-CD40L cells, NF-kB-driven secreted alkaline phosphatase reporter; TNFα 0.5 ng/ml; 18 h; read-out: TNF induced HEK-Blue assay IC50 value. The class given is cell-based.
Chain of TNFα (P01375 77-233 limits assumed): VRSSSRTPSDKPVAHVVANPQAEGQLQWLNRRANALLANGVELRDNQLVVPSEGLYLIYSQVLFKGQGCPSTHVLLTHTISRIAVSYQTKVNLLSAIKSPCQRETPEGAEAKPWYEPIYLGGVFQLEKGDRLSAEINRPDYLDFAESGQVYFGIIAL
As a reminder, the pIC50 is the negative decadic logarithm of the IC50, by convention in mol/L. `CC(C)C[C@@H]1NC(=O)[C@H](CCCNC(=N)N)NC(=O)[C@H](C(C)C)NC(=O)[C@@H]2CCCN2C(=O)[C@H](Cc2cccnc2)NC(=O)[C@H](CCCNC(=N)N)NC(=O)[C@H](CC(=O)O)NC(=O)[C@@H]2CCCN2C(=O)CN(C)C(=O)[C@H](Cc2ccc(-c3ccccc3)cc2)NC(=O)[C@H](Cc2ccc(-c3ccccc3)cc2)NC(=O)[C@H](C(C)(C)O)NC(=O)CSC[C@@H](C(=O)NCC(N)=O)NC1=O` [Example 60] ({CH2CO}-[Val(3-OH)][Bip][Bip][Sar]PDR[3Pal]PVRLCG-NH2; thioether N-13): the pIC50 was 5.70 to 6.70. Regarding `CC(C)C[C@@H]1NC(=O)[C@H](CCCNC(=N)N)NC(=O)[C@H](C(C)C)NC(=O)[C@@H]2CCCN2C(=O)[C@H](Cc2ccc(N)cc2)NC(=O)[C@H](CCCNC(=N)N)NC(=O)[C@H](CC(=O)O)NC(=O)[C@@H]2CCCN2C(=O)CN(C)C(=O)[C@H](Cc2ccc(-c3ccccc3)cc2)NC(=O)[C@H](Cc2ccc(-c3ccccc3)cc2)NC(=O)[C@H](C(C)(C)O)NC(=O)CSC[C@@H](C(=O)NCC(N)=O)NC1=O` [Example 61] ({CH2CO}-[Val(3-OH)][Bip][Bip][Sar]PDR[Phe(4-NH2)]PVRLCG-NH2; thioether N-13), the negative logarithm of the IC50 (pIC50) is 5.70 to 6.70. The value for `CC(C)C[C@@H]1NC(=O)[C@H](Cc2ccc(O)cc2)NC(=O)[C@H](C(C)C)NC(=O)[C@@H]2CCCN2C(=O)[C@H](C(C)C)NC(=O)[C@@H](CCCNC(=N)N)NC(=O)[C@H](CC(=O)O)NC(=O)[C@H](Cc2ccc(O)cc2)NC(=O)CN(C)C(=O)[C@H](Cc2ccc(-c3ccccc3)cc2)NC(=O)[C@H](Cc2ccc(-c3ccccc3)cc2)NC(=O)[C@H](Cc2ccccc2)NC(=O)CSC[C@@H](C(=O)NCC(N)=O)NC1=O` [Example 62] ({CH2CO}-F[Bip][Bip][Sar]YD[dR]VPVYLCG-NH2; thioether N-13) was 6.70 to 7.30; that for `COc1cccc(C[C@@H]2NC(=O)[C@H](C(C)C)NC(=O)[C@@H]3CCCN3C(=O)[C@H](C(C)C)NC(=O)[C@H](CCCNC(=N)N)NC(=O)[C@H](CC(=O)O)NC(=O)[C@@H]3CCCN3C(=O)CN(C)C(=O)[C@H](Cc3ccc(-c4ccccc4)cc3)NC(=O)[C@H](Cc3ccc(-c4ccccc4)cc3)NC(=O)[C@H](Cc3ccccc3)NC(=O)CSC[C@@H](C(=O)NCC(N)=O)NC(=O)[C@H](CC(C)C)NC2=O)c1` [Example 63] ({CH2CO}-F[Bip][Bip][Sar]PDRVPV[Phe(3-OMe)]LCG-NH2; thioether N-13) was 5.70 to 6.70. In the case of `CC(C)C[C@@H]1NC(=O)[C@H](Cc2ccc(O)cc2)NC(=O)[C@H](C(C)C)NC(=O)[C@@H]2CCCN2C(=O)[C@H](C(C)C)NC(=O)[C@H](CCCNC(=N)N)NC(=O)[C@H](CC(=O)O)NC(=O)[C@@H]2CCCN2C(=O)CN(C)C(=O)[C@H](Cc2ccc(-c3ccccc3)cc2)NC(=O)[C@H](Cc2ccc(-c3ccccc3)cc2)NC(=O)[C@H](C(C)(C)O)NC(=O)CSC[C@@H](C(=O)NCC(N)=O)NC1=O` [Example 64] ({CH2CO}-[Val(3-OH)][Bip][Bip][Sar]PDRVPVYLCG-NH2; thioether N-13), the negative-log IC50 (pIC50) is 5.70 to 6.70. In the case of `CC(C)C[C@@H]1NC(=O)[C@H](CCCNC(=N)N)NC(=O)[C@H](C(C)C)NC(=O)[C@@H]2CCCN2C(=O)[C@H](C(C)C)NC(=O)[C@H](CCCNC(=N)N)NC(=O)[C@H](CC(=O)O)NC(=O)[C@H](Cc2ccc(O)cc2)NC(=O)CN(C)C(=O)[C@H](Cc2ccc(-c3ccccc3)cc2)NC(=O)[C@H](Cc2ccc(-c3ccccc3)cc2)NC(=O)[C@H](C(C)(C)O)NC(=O)CSC[C@@H](C(=O)NCC(N)=O)NC1=O` [Example 65] ({CH2CO}-[Val(3-OH)][Bip][Bip][Sar]YDRVPVRLCG-NH2; thioether N-13) it was 6.70 to 7.30. For the compound `CC(C)C[C@@H]1NC(=O)[C@H](CCCNC(=N)N)NC(=O)[C@H](C(C)C)NC(=O)[C@@H]2CCCN2C(=O)[C@H](CC(N)=O)NC(=O)[C@H](CCCNC(=N)N)NC(=O)[C@H](CC(=O)O)NC(=O)[C@@H]2CCCN2C(=O)CN(C)C(=O)[C@H](Cc2ccc(-c3ccccc3)cc2)NC(=O)[C@H](Cc2ccc(-c3ccccc3)cc2)NC(=O)[C@H](CN2CCOCC2)NC(=O)CSC[C@@H](C(=O)NCC(N)=O)NC1=O` [Example 67] ({CH2CO}-[Ala(morpholin-4-yl)][Bip][Bip][Sar]PDRNPVRLCG-NH2; thioether N-13), the negative-log IC50 (pIC50) was 5.70 to 6.70.

Turning to `CC(C)C[C@@H]1NC(=O)[C@H](Cc2ccc(O)cc2)NC(=O)[C@H](C(C)C)NC(=O)[C@@H]2CCCN2C(=O)[C@H](C(C)C)NC(=O)[C@@H](CCCNC(=N)N)NC(=O)[C@H](CC(=O)O)NC(=O)[C@H](Cc2ccc(O)cc2)NC(=O)CN(C)C(=O)[C@H](Cc2ccc(-c3ccccc3)cc2)NC(=O)[C@H](Cc2ccc(-c3ccccc3)cc2)NC(=O)[C@H](CN2CCOCC2)NC(=O)CSC[C@@H](C(=O)NCC(N)=O)NC1=O` [Example 68] ({CH2CO}-[Ala(morpholin-4-yl)][Bip][Bip][Sar]YD[dR]VPVYLCG-NH2; thioether N-13), the negative logarithm of the IC50 (pIC50) is more than 7.30. Regarding `CC(C)C[C@@H]1NC(=O)[C@H](Cc2ccc(O)cc2)NC(=O)[C@H](C(C)C)NC(=O)[C@@H]2CCCN2C(=O)[C@H](C(C)C)NC(=O)[C@@H](CCCNC(=N)N)NC(=O)[C@H](CC(=O)O)NC(=O)[C@H](Cc2ccc(O)cc2)NC(=O)CN(C)C(=O)[C@H](Cc2ccc(-c3ccccc3)cc2)NC(=O)[C@H](Cc2ccc(-c3ccccc3)cc2)NC(=O)[C@H](C(C)(C)O)NC(=O)CSC[C@@H](C(=O)NCC(N)=O)NC1=O` [Example 69] ({CH2CO}-[Val(3-OH)][Bip][Bip][Sar]YD[dR]VPVYLCG-NH2; thioether N-13), the negative-log IC50 (pIC50) was more than 7.30. Turning to `CC(C)C[C@@H]1NC(=O)[C@H](CCCNC(=N)N)NC(=O)[C@H](C(C)C)NC(=O)[C@@H]2C[C@@H](O)CN2C(=O)[C@H](C(C)C)NC(=O)[C@H](CCCNC(=N)N)NC(=O)[C@H](CC(=O)O)NC(=O)[C@@H]2CCCN2C(=O)CN(C)C(=O)[C@H](Cc2ccc(-c3ccccc3)cc2)NC(=O)[C@H](Cc2ccc(-c3ccccc3)cc2)NC(=O)[C@H](CN2CCOCC2)NC(=O)CSC[C@@H](C(=O)NCC(N)=O)NC1=O` [Example 70] ({CH2CO}-[Ala(morpholin-4-yl)][Bip][Bip][Sar]PDRV[Hyp]VRLCG-NH2; thioether N-13), the negative-log IC50 (pIC50) was 5.70 to 6.70. For the compound `CC(C)C[C@@H]1NC(=O)[C@H](CCCNC(=N)N)NC(=O)[C@H](C(C)C)NC(=O)[C@@H]2Cc3ccccc3CN2C(=O)[C@H](C(C)C)NC(=O)[C@H](CCCNC(=N)N)NC(=O)[C@H](CC(=O)O)NC(=O)[C@@H]2CCCN2C(=O)CN(C)C(=O)[C@H](Cc2ccc(-c3ccccc3)cc2)NC(=O)[C@H](Cc2ccc(-c3ccccc3)cc2)NC(=O)[C@H](CN2CCOCC2)NC(=O)CSC[C@@H](C(=O)NCC(N)=O)NC1=O` [Example 71] ({CH2CO}-[Ala(morpholin-4-yl)][Bip][Bip][Sar]PDRV[Tic]VRLCG-NH2; thioether N-13), the pIC50 is 6.70 to 7.30. With `CC(C)C[C@@H]1NC(=O)[C@H](CCCNC(=N)N)NC(=O)[C@H](C(C)C)NC(=O)[C@@H]2CCN2C(=O)[C@H](C(C)C)NC(=O)[C@H](CCCNC(=N)N)NC(=O)[C@H](CC(=O)O)NC(=O)[C@@H]2CCCN2C(=O)CN(C)C(=O)[C@H](Cc2ccc(-c3ccccc3)cc2)NC(=O)[C@H](Cc2ccc(-c3ccccc3)cc2)NC(=O)[C@H](CN2CCOCC2)NC(=O)CSC[C@@H](C(=O)NCC(N)=O)NC1=O` [Example 72] ({CH2CO}-[Ala(morpholin-4-yl)][Bip][Bip][Sar]PDRV[Aze]VRLCG-NH2; thioether N-13), the negative logarithm of the IC50 (pIC50) was 6.70 to 7.30.
